The text below walks through data of patent US9744119B2, “Cosmetic composition and method of preparation” (Momentive Performance Materials Inc., priority 2014, dated 2017).

The nature of the data set: Differential scanning calorimetry (DSC) of niacinamide and its 2% blends with silicones. It is filed as physicochemical. The procedure:
To further understand the difference in interaction between ionically modified silicone and control/Silsoft silicone gel, differential scanning calorimetry (DSC) studies were carried out on pure active-niacinamide, and its blends with silsoft silicone and ionically modified silicone. 2% Niacinamide blends were prepared by thoroughly mixing Niacinamide with above silicones using spatula followed by high-speed mixing in Flack-Tek for 5 minutes. The free Niacinamide and Niacinamide loaded Silsoft silicone gel and ionically modified silicone were subjected to a heating and cooling cycle under nitrogen atmosphere. The DSC thermograms are show in FIG. 2.

Regarding `NC(=O)c1cccnc1` [Niacinamide, niacinamide], under “nitrogen atmosphere”, the “ΔH (heat change associated with the melting of Niacinamide)” value is 218.7 J/g. Moreover, for the setting “relative to pure niacinamide”, the “% Crystallinity (crystalline Niacinamide)” value was 100%.
